According to US20100190737A1, “COMPOSITIONS COMPRISING INOSINE AND OROTIC ACID AND METHODS OF USE THEREOF FOR THE TREATMENT OF CERTAIN HEART CONDITIONS AND ENHANCEMENT OF WORK CAPACITY” (NUTRITIONAL RESEARCH GROUP LLC, priority 2009, published 2010):
Several values for one entry are separate records, joined by “and”; a condition that tells them apart may be missing. Equal values may be shown once.

Tests used:
[1] = tested on: rats with experimental aortic stenosis; test: Short term (7 day) experimental aortic stenosis: heart weight and swimming to exhaustion; type: in vivo, rat; conditions: EAS rats; for Heart Weight: intragastric daily
From the text: There are two 7 day experiments in this portion of the study; a preliminary 7 day study with 54 rats in 9 groups (6 rats per group) to determine optimal dosage levels for the separate inosine or potassium orotate ingredients for farther experimentation by determination of maximal heart weight development and work capacity; and then a study with 30 rats in 5 groups (6 rats per group) using the optimal single ingredient dosage levels for comparison with the results of a composition of the ingredients. All compounds were administered intragastrically through a tube after being dissolved in approximately 1 ml of water.
A single control group received a sham operation, while the rest of the groups received experimental aortic stenosis (“EAS”) operations (all according to Beznak in Journal Physiol. (Lond.) 120.23P, 1953 as modified by Kogan, Bull eksper. Biol. Med., 26:112, 1961 and then the other 13 groups received various treatments and dosages of inosine or potassium orotate or a composition of the two ingredients after the optimal inosine and potassium orotate dosages were determined. All animals were tested at the beginning and end of the experiment for swimming to exhaustion times with a 7.5% body weight load attached to their tails.
Sach compound, i.e., inosine and potassium orotate, was administered at different doses and the level of heart hypertrophy and work capacity was observed. Each of the compounds was evaluated in four doses: 12.5 mg/kg, 25 mg/kg, 50 mg/kg and 100 mg/kg body weight. Six animals were used in each group for inosine [4 groups] and potassium orotate [4 groups] plus the one control group (sham operated, no treatment); 54 animals in total.
Thirty white rats were divided into 5 groups (6 animals in each group). Group I was a sham-operated control group, Group II animals with experimental aortic stenosis but were untreated, Groups III, IV & V animals, all with experimental aortic stenosis received by an intragastric tube each day, either inosine (25 mg/kg body weight), potassium orotate (50 mg/kg body weight) or an composition of inosine (25 mg/kg body weight) plus potassium orotate (50 mg/kg body weight), respectively.

[2] = tested on: rats with experimental aortic stenosis; test: Long term (12 month) experimental aortic stenosis; type: in vivo, rat; conditions: for Mortality %: 12 month study, 15 rats per group, inosine 25, potassium orotate 50 mg/kg/day from day 45 for 10.5 months, untreated stenosis 47
Procedure: A 12 month study using 60 white unbred male rats with initial body weights of 110-120 g, divided into four experimental groups, each group with 15 rats. Group I included intact animals (controls); Group II—rats with experimental aortic stenosis (untreated stenosed controls); Group III rats with experimental aortic stenosis given inosine in doses of 25 mg/kg/day; and Group IV rats with experimental aortic stenosis given both inosine and an orotic acid (in the instant study potassium orotate was used, however, as the orotic acid comprises 93-95% percent of any of the orotates, the results achieved are indicative of usage of any of the orotates including the potassium orotate used herein) combination in doses of 25 and 50 mg/kg/day, respectively, intragastrically, using a metal curved tube, beginning from the 45th day after the creation date of the abdominal aortic stenosis, and continuing for 10.5 months. The abdominal aortic stenosis was produced by the method of Beznak, referred to hereinabove, modified by Kogan, referred to above.
During the experimental period the animals in all four groups had regular measurements (recordings) of body weight and the 3-standard lead EKG-ms and 5-plane pericardial vector-cardiograms (VCG). At the beginning and end of the experimental period they also underwent tests for the endurance of a single, dosed physical exercise—forced swimming in a pool at 28-30° C., until maximally exhausted. Specifically, an animal had fixed to its tail a lead weight weighing approximately 7.5% percent of the animal's body weight became submerged due to the inability to continue swimming. At the end of the experimental period, the animals were sacrificed, and their hearts, thymuses, livers, adrenals and thyroids were weighed and their relative weights per 100 g body weight were calculated and recorded. Histological figures of sectioned cardiac muscle stained with hematoxilin-eosin were prepared by Van Hison's technique and examined for any attendant alterations in the normal histology of the heart. During the experiment, (untreated aortic stenosis) 8 of the 15 rats in Group II died, while in Group III (treated stenosis w/inosine) and Group IV (treated stenosis w/inosine and potassium orotate)—only 3 rats in each group died. […] The observed time period wherein the rats could swim were as follows: Groups I animals 45±2.0 minutes; Group II 6.5±2.1 minutes; Group III 16±1.2 minutes; and Group IV 32±4 minutes, respectively. Thus, the group receiving the combination of inosine and potassium orotate performed far better than Group II (untreated stenosis) and had doubled the work capacity of Group III (treated with inosine only). The relative weight of the heart in animals in Groups II, III and IV was higher than in Group I (control group) by 67%, 36% and 56%, respectively. (See Tables 2 A-B). The hearts of Group II animals were in the state of eccentric hypertrophy which explains the higher weight (see FIG. 5). The left ventricular wall in the animals of Group II was 8% thinner than in rats of Group I as a result of the eccentric condition. In rats of Groups III and IV the left ventricular wall was 30% and 46% thicker, respectively, than the rats in group I and they were all in the state of concentric heart hypertrophy.

[3] = seventh day, inosine 25 mg/kg BW, potassium orotate 50 mg/kg BW, alone or together
[4] = seventh day, inosine 25 mg/kg BW, potassium orotate 50 mg/kg BW, alone or together, listed as Inosine

## OC[C@H]1O[C@@H](n2cnc3c(O)ncnc32)[C@H](O)[C@@H]1O [inosine]
[1]; day 7, 12.5 mg/kg intragastrically, EAS control 15±5.0, sham 62±5.0
  swimming time: 18 ± 2.0 min
[1]; day 7, 25 mg/kg
  swimming time: 28 ± 3.0 min
[1]; day 7, 50 mg/kg
  swimming time: 29 ± 3.0 min
[1]; day 7, 100 mg/kg
  swimming time: 27.0 ± 3.0 min
[1]; seventh day, 12.5 mg/kg, EAS control 400±8.9, sham 300±5.0
  relative heart weight: 410±9.0 mg/100 g. body weight
[1]; seventh day, 25 mg/kg
  relative heart weight: 440±12 mg/100 g. body weight
[1]; seventh day, 50 mg/kg
  relative heart weight: 442±12 mg/100 g. body weight
[1]; seventh day, 100 mg/kg
  relative heart weight: 440±10 mg/100 g. body weight
[1]; [3]
  swimming time: 31 ± 3.0 min
  Heart Weight: 450±12 mg/100 gr BW
[1]; [4]
  Heart Weight: 450 ± 12 mg/100 gr BW
  swimming time: 31 ± 3.0 min
[2]; 1½ months (before treatment)
  EKG QRS 1½ months: 0.021 ± 0.004 s
  EKG R Wave Voltage 1½ months: 0.38 ± 0.05 mV
  EKG Stroke Index 1½ months: 47 ± 10%
  Heart Rate 1½ months: 410 ± 11 beats/min
  T Wave Voltage 1½ months: 0.21 ± 0.01 mV
[2]
  Mortality %: 20%
[2]; listed as Inosine
  Mortality %: 20%
[2]; 12 months
  EKG QRS 12 months: 0.022 ± 0.001 s
  EKG R Wave Voltage 12 months: 0.9 ± 0.09 mV
  EKG Stroke Index 12 months: 34 ± 1.2%
  Heart Rate 12 months: 420 ± 16 beats/min
  T Wave Voltage 12 months: 0.29 ± 0.05 mV
  left ventricular wall thicker than in Group I: 30%
  relative weight of the heart higher than in Group I (control): 36%
[2]; 12 months after surgery
  QRS-T angle 120° to 180°: 5
  Relative weight of Heart: 387 ± 9.5 mg/100 g
  Thickness of Left Ventricular Wall: 3.9 ± 0.14 mm
  VGC QRS Amplitude: 3.2 ± 0.12 mV
  VGC QRS Area: 8.3 ± 1.1 cm^2
  VGC QRS Not closed: 58%
  VGC T Amplitude: 0.6 ± 0.01 mV
[2]; forced swimming, 1½ months after surgery (treatment began on the 45th day)
  Working capacity (min) 1½ months: 43 ± 4.6 min
[2]; forced swimming, 12 months after surgery, 10.5 months of treatment
  Working capacity (min) 12 months: 16 ± 1.2 min and 16 ± 1.3 min
[2]; haemotoxylin-eosin stained sections
  appearance of the myocardium, light micrographs (FIG. 6): normal appearance
[2]; of 15 rats per group, untreated stenosis 8
  rats that died during the experiment: 3 rats
[2]; prolonged administration
  development of cardiac eccentric hypertrophy: prevented development of cardiac eccentric hypertrophy
[2]; rat, in vivo
  ultrastructure of left ventricular myocardium, mitochondria (FIG. 7): normal sized mitochondria
[2]; versus critical weight of rats with the same body weight
  critical heart weight enhanced by: 16%
